Measured values as given in patent publication US20240226125A1, “USE OF SOTAGLIFLOZIN FOR THE TREATMENT OF PATIENTS WITH TYPE 1 DIABETES MELLITUS” (priority 2019, published 2024).

What was measured:
[1] = tested on: patients with type 1 diabetes; conditions: phase II trials; cited from earlier work
[2] = tested on: adult patients diagnosed with T1D who have inadequate glycemic control with insulin therapy; test: inTandem 3 phase 3 randomized double-blind placebo-controlled study; format: in vivo, human; conditions: for A1C (%) LS Mean Difference (SE) / Body weight (kg) LS Mean Difference (SE) / Fasting plasma glucose (mg/dL) LS Mean Difference (SE) / SBP (mmHg) LS Mean Difference (SE): 400 mg vs placebo; for A1C (%) LS Mean Difference (SE) / Body weight (kg) LS Mean Difference (SE) / Fasting plasma glucose (mg/dL) LS Mean Difference (SE) / SBP (mmHg) LS Mean Difference (SE) / A1C (%) LS Mean change (SE) / Body weight (kg) LS Mean change (SE) / Fasting plasma glucose (mg/dL) LS Mean change (SE) / SBP (mmHg) LS Mean change (SE): InTandem3; for A1C (%) LS Mean change (SE) / Body weight (kg) LS Mean change (SE) / Fasting plasma glucose (mg/dL) LS Mean change (SE) / SBP (mmHg) LS Mean change (SE): 400 mg
[3] = Baseline BMI <27 kg/m^2, Week 24
[4] = Baseline BMI ≥27 kg/m^2, Week 24
[5] = Sotagliflozin 400 mg vs placebo, Week 24
[6] = Sotagliflozin 400 mg, Week 16, SBP ≥130 mm Hg at baseline
[7] = Sotagliflozin 400 mg, Week 24, insulin pump users
[8] = Sotagliflozin 400 mg, Week 24, nonpump users

CCOc1ccc(Cc2cc([C@@H]3O[C@H](SC)[C@@H](O)[C@H](O)[C@H]3O)ccc2Cl)cc1 [sotagliflozin, (2S,3R,4R,5S,6R)-2-(4-chloro-3-(4-ethoxybenzyl)phenyl)-6-(methylthio)tetrahydro-2H-pyran-3,4,5-triol]
glycemic control (reduction in A1C) [1]: significantly improve glycemic control | primary endpoint (A1C <7.0% at Week 24, no severe hypoglycemia, no DKA) ([2]; 400 mg versus placebo): reached its primary endpoint | A1C (%) LS Mean Difference (SE) [2, 3]: −0.37 (0.068) % | Body weight (kg) LS Mean Difference (SE) [2, 3]: −2.47 (0.213) kg | Fasting plasma glucose (mg/dL) LS Mean Difference (SE) [2, 3]: −21.7 (5.78) mg/dL | SBP (mmHg) LS Mean Difference (SE) [2, 3]: −3.4 (0.92) mmHg | A1C (%) LS Mean Difference (SE) [2, 4]: −0.54 (0.051) % | Body weight (kg) LS Mean Difference (SE) [2, 4]: −3.41 (0.247) kg | Fasting plasma glucose (mg/dL) LS Mean Difference (SE) [2, 4]: −24.3 (4.69) mg/dL | SBP (mmHg) LS Mean Difference (SE) [2, 4]: −3.2 (0.79) mmHg | A1C (%) LS Mean change (SE) [2, 3]: −0.72 (0.051) % | Body weight (kg) LS Mean change (SE) [2, 3]: −1.71 (0.157) kg | Fasting plasma glucose (mg/dL) LS Mean change (SE) [2, 3]: −10.4 (4.30) mg/dL | SBP (mmHg) LS Mean change (SE) [2, 3]: −1.7 (0.69) mmHg | A1C (%) LS Mean change (SE) [2, 4]: −0.86 (0.065) % | Body weight (kg) LS Mean change (SE) [2, 4]: −2.80 (0.277) kg | Fasting plasma glucose (mg/dL) LS Mean change (SE) [2, 4]: −23.5 (6.34) mg/dL | SBP (mmHg) LS Mean change (SE) [2, 4]: −3.8 (1.19) mmHg | efficacy compared to placebo on A1C and body weight in the overweight and obese subgroup ([2]; BMI ≥27 kg/m^2 vs <27 kg/m^2, InTandem 3): more favorable effect | Primary endpoint: Patients achieving glycated hemoglobin <7% without DKA and no severe hypoglycemia, All patients, no. ([2]; Sotagliflozin 400 mg (n = 699), Week 24): 200 | Systolic blood pressure in patients with SBP ≥130 mm Hg at baseline, Week 16 LS mean change, LS mean difference from placebo ([2]; Sotagliflozin 400 mg vs placebo, Week 16, SBP ≥130 mm Hg at baseline): −3.5 ± 1.11 mm Hg | Daily bolus insulin dose, Week 24 LS mean change from baseline ± SE, LS mean difference from placebo [2, 5]: −2.84 ± 0.61 IU/day | Daily bolus insulin dose, Week 24 LS mean percent change from baseline ± SE, LS mean difference from placebo [2, 5]: −12.32 ± 2.98% | Glycated hemoglobin, Week 24 LS mean change from baseline ± SE, LS mean difference from placebo [2, 5]: −0.46 ± 0.04% | Primary endpoint, All patients, LS mean difference from placebo (95% CI) [2, 5]: 13.4% (8.97 to 17.81) | Weight, Week 24 LS mean change from baseline ± SE, LS mean difference from placebo [2, 5]: -2.98 ± 0.166 kg | Primary endpoint, Insulin pump users, LS mean difference from placebo (95% CI) ([2]; Sotagliflozin 400 mg vs placebo, Week 24, insulin pump users): 15.9% (8.58 to 23.38) | Primary endpoint, Nonpump users, LS mean difference from placebo (95% CI) ([2]; Sotagliflozin 400 mg vs placebo, Week 24, nonpump users): 11.8% (6.14 to 17.38) | Systolic blood pressure in patients with SBP ≥130 mm Hg at baseline, Week 16 LS mean change from baseline ± SE [2, 6]: −9.2 ± 0.92 mm Hg | Systolic blood pressure in patients with SBP ≥130 mm Hg at baseline, Week 16 mean ± SD [2, 6]: 131.8 ± 12.02 mm Hg | Daily bolus insulin dose, Week 24 LS mean change from baseline ± SE ([2]; Sotagliflozin 400 mg, Week 24): −3.93 ± 0.47 IU/day | Daily bolus insulin dose, Week 24 LS mean percent change from baseline ± SE ([2]; Sotagliflozin 400 mg, Week 24): −5.71 ± 2.29% | Daily bolus insulin dose, Week 24 mean ± SD ([2]; Sotagliflozin 400 mg, Week 24): 23.90 ± 15.76 IU/day | Glycated hemoglobin, Week 24 LS mean change from baseline ± SE ([2]; Sotagliflozin 400 mg, Week 24): −0.79 ± 0.03% | Glycated hemoglobin, Week 24 mean ± SD ([2]; Sotagliflozin 400 mg, Week 24): 7.41 ± 0.95% | Primary endpoint: Patients achieving glycated hemoglobin <7% without DKA and no severe hypoglycemia, All patients, (%) ([2]; Sotagliflozin 400 mg, Week 24): 28.6% | Weight, Week 24 LS mean change from baseline ± SE ([2]; Sotagliflozin 400 mg, Week 24): -2.21 ± 0.12 kg | Weight, Week 24 mean ± SD ([2]; Sotagliflozin 400 mg, Week 24): 80.19 ± 17.02 kg | Primary endpoint, Insulin pump users, (%) [2, 7]: 32.0% | Primary endpoint, Insulin pump users, no. [2, 7]: 88 | Primary endpoint, Nonpump users, (%) [2, 8]: 26.4% | Primary endpoint, Nonpump users, no. [2, 8]: 112
